Laboratory results reported in patent US4829076A, “Novel dihydropyridines having calcium antagonistic and antihypertensive activity” (Alkaloida Vegyeszeti Gyar, priority 1986, dated 1989).
Where two headings read alike, the source gives them in different places.

What was measured:
[1] = test system: anesthetized, normotensive cats; experiment: Hypotensive effect in anesthetized, normotensive cats; type: in vivo, cat; details: 1 mg/kg id.
Experimental: A tube was inserted in the trachea of cats anesthetized with ip.35 mg/kg of pentobarbital sodium to ensure spontaneous respiration. The femoral artery and vein were both cannulated unilaterally. The vegetative test compounds (adrenaline, isoproterenol) were administered through the venous cannule. The mean arterial blood pressure was measured by joining the arterial cannule to a Statham P23Db pressure transducer and electromanometer. The heart rate was determined by a cardiotachometer triggered by arterial pulse-wave.
Various doses of the test compounds were administered through a cannule inserted into the duodenum.

[2] = test system: spontaneously hypertensive conscious rats; experiment: Antihypertensive effect in spontaneously hypertensive conscious rats ("SH" rats); type: in vivo, rat (Wistar-Okamoto); details: for change in vivo at 10 mg/kg / change in vivo at 2.5 mg/kg: Rattus norvegicus, po
Experimental: The blood pressure of rats was measured before treatment and hourly after drug administration till the 24th posttreatment hour. The test compounds were administered orally, by gavage.

[3] = test system: PGF2alpha induced uterus contractions (isolated rat uterus); experiment: In vitro uterus relaxant activity in the isolated rat uterus (inhibition of PGF2alpha induced contraction); details: 10^-6 M test compound
Experimental: The test was performed according to the method of Gaddum and Hammeed [Brit. […] The inhibitory activity of 10^-6 M doses of the test compounds on the PGF2alpha induced uterus contractions was determined.

[4] = biological target: T1, 1,4-dihydropyridine receptor; experiment: Receptor binding studies (displacement of 3H-nitrendipine, heart microsomal preparation); details: displacement of 50% of 3H-nitrendipine
T1 construct: to the heart microsomal preparation; from tissue; host or cells: heart microsomal preparation

[5] = biological target: T2, potential-mediated calcium channel (Rattus norvegicus, UniProt P22002); experiment: Calcium-antagonistic effect on an isolated vessel preparation (portal vein); details: depolarizing solution (90 mM KCl), CaCl2 2.5 and 5.0 mM, 37° C., pH 7.4, read-out: Inhibition of the potential-mediated calcium channel, IC50
T2 construct: Portal veins were obtained from decapitated male rats; from tissue; host or cells: rat portal vein (longitudinally incised venous segment)
Experimental: Portal veins were obtained from decapitated male rats weighing 300 to 350 g. The longitudinally incised venous segment was suspended in an organ chamber (10 ml) filled with physiological saline solution under resting tension of 1 g. Its upper end was attached to a HSI force-displacement transducer. Isometric contractions were recorded with a Beckman Dynograph.
After the initial equilibration period in a calcium-free Krebs-Ringer bicarbonate solution (KRB) the vein was exposed to a depolarizing solution (calcium-free KRB containing 90 mM of KCl) for 10 minutes. In order to determine the cumulative contractile responses CaCl2 was added in an end-concentration of 2.5 and 5.0 mM, resp. Each medium was oxygenated with carbogen gas and maintained at 37° C. and pH 7.4.
The influence of the test compounds on the contraction was determined by incubating the veins in the depolarizing solution for 10 minutes before and during exposure to Ca^2+. Each vein preparation was subjected to a single concentration of the test compound.
For each experiment the 100% responses were considered as the maximum contractile responses during the control Ca curves. The contractions after exposure to the test compounds were expressed as the percentage of these values.

[6] = 10 mg/kg p.o., 2 h, read-out: Systolic blood pressure reduction in %, 2 h
[7] = 10 mg/kg p.o., 5 h, read-out: Systolic blood pressure reduction in %, 5 h
[8] = 10 mg/kg p.o., 24 h, read-out: Systolic blood pressure reduction in %, 24 h
[9] = 2.5 mg/kg p.o., 2 h, read-out: Systolic blood pressure reduction in %, 2 h
[10] = 2.5 mg/kg p.o., 5 h, read-out: Systolic blood pressure reduction in %, 5 h
[11] = 2.5 mg/kg p.o., 24 h, read-out: Systolic blood pressure reduction in %, 24 h

T2 sequence (P22002 whole entry): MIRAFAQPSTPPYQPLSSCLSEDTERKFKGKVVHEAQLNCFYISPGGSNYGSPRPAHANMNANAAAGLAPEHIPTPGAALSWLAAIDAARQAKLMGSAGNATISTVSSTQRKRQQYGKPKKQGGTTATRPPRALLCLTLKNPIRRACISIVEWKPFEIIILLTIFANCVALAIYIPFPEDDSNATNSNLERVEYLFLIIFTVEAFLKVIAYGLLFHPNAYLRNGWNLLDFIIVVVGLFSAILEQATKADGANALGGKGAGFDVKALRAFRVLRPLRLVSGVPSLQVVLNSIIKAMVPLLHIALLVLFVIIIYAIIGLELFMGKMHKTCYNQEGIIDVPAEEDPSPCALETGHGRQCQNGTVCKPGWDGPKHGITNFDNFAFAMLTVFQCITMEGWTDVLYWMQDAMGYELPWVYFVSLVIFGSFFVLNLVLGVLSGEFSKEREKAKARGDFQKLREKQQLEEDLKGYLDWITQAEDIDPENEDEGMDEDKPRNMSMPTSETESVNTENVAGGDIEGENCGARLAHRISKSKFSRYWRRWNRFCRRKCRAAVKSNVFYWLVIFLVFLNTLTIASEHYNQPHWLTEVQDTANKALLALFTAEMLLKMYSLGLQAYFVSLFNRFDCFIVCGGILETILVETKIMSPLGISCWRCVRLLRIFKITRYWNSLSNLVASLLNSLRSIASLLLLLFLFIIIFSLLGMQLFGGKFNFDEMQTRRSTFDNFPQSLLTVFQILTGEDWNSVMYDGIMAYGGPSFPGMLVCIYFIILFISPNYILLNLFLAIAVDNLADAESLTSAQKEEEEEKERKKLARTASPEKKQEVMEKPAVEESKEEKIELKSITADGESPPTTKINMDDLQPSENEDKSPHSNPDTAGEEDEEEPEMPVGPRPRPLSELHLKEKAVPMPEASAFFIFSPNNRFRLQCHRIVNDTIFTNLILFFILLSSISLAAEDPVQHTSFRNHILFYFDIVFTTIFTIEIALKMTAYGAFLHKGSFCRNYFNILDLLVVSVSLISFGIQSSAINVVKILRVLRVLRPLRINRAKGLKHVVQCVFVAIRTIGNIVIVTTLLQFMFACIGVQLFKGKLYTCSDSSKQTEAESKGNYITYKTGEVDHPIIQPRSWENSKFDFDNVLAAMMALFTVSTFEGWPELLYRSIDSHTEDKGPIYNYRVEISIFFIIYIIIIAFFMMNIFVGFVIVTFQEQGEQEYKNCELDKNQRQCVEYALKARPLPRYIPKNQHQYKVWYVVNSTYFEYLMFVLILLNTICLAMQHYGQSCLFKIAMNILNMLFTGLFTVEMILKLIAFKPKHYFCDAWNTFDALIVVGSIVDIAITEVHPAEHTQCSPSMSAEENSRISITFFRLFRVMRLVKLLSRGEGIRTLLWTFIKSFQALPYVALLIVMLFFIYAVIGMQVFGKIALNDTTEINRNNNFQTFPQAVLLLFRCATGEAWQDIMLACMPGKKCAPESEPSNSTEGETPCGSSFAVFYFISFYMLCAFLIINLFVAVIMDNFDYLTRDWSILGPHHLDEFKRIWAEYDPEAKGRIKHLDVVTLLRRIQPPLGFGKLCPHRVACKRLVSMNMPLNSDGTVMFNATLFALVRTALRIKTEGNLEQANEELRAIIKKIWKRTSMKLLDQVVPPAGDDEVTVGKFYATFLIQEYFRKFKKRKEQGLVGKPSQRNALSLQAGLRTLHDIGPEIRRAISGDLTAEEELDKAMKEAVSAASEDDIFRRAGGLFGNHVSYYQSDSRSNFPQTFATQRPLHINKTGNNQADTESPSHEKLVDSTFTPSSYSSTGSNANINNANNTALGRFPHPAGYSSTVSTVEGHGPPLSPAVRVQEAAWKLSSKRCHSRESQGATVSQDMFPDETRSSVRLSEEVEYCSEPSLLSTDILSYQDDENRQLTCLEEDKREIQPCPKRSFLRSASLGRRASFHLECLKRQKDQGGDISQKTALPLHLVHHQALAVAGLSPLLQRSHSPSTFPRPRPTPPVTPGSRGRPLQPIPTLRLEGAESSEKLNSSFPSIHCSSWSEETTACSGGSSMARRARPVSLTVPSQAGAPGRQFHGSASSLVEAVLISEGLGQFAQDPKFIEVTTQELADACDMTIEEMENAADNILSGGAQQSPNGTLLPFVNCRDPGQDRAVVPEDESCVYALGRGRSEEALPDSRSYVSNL
T2 sequence (P54290 25-943 partner limits assumed): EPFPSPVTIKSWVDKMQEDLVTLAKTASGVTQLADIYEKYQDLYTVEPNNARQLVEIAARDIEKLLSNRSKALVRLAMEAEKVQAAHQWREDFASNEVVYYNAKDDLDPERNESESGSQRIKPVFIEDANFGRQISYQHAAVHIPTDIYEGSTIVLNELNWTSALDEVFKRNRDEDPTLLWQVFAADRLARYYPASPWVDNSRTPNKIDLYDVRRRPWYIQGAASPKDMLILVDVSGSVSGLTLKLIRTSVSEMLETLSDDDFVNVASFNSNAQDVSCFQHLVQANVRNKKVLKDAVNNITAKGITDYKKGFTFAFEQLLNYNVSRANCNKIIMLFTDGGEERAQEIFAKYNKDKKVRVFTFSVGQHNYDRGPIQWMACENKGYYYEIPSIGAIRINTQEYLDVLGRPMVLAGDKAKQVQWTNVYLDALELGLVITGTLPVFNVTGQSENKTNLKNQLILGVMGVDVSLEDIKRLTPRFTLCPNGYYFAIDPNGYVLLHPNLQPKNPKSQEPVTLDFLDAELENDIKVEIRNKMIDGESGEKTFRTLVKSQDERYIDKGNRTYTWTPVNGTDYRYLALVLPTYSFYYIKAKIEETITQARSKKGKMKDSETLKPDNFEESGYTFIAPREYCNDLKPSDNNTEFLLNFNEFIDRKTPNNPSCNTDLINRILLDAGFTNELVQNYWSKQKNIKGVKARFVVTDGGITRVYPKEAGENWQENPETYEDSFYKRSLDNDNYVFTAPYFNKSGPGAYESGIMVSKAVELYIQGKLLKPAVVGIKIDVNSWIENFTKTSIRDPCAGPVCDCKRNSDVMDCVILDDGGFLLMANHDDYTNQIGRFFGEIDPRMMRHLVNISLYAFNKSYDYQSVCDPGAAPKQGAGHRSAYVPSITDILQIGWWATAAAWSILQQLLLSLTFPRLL
T2 sequence (P54290 944-1091 partner limits assumed): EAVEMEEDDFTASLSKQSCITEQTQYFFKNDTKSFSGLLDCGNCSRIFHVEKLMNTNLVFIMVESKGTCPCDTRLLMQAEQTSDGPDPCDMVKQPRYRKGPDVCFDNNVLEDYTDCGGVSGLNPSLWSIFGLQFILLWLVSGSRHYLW

Row | SMILES | Mean arterial pressure, 5 min [1] [Hgmm] | Mean arterial pressure, 15 min [1] [Hgmm] | Mean arterial pressure, 30 min [1] [Hgmm] | Systolic blood pressure, 2 h ([2]; 10 mg/kg p.o., 2 h) [Hgmm] | Systolic blood pressure, 5 h ([2]; 10 mg/kg p.o., 5 h) [Hgmm] | Systolic blood pressure, 24 h ([2]; 10 mg/kg p.o., 24 h) [Hgmm] | change in vivo at 10 mg/kg [2, 6] [%] | change in vivo at 10 mg/kg [2, 7] [%] | change in vivo at 10 mg/kg [2, 8] [%] | Mean arterial pressure, 60 min [1] [Hgmm] | Mean arterial pressure, 120 min [1] [Hgmm] | Inhibition of PGF2alpha induced contraction [3] [%] | Systolic blood pressure, 2 h ([2]; 2.5 mg/kg p.o., 2 h) [Hgmm] | Systolic blood pressure, 5 h ([2]; 2.5 mg/kg p.o., 5 h) [Hgmm] | Systolic blood pressure, 24 h ([2]; 2.5 mg/kg p.o., 24 h) [Hgmm] | change in vivo at 2.5 mg/kg [2, 9] [%] | change in vivo at 2.5 mg/kg [2, 10] [%] | change in vivo at 2.5 mg/kg [2, 11] [%] | IC50 [4] [nM] | IC50 [5] [nM]
1 | COC(=O)C1=C(C)NC(C)=C(C(=O)OC)C1c1ccccc1NS(C)(=O)=O [Example 41, 2,6-Dimethyl-4-n2-methanesulfonylamidophenyl)-3,5-bis(methoxycarbonyle-1,4-dihydropyridine] | 90 | 80 | 85 | – | – | – | – | – | – | – | – | – | – | – | – | – | – | – | – | –
2 | COC(=O)C1=C(C)NC(C)=C(C(=O)OC)C1c1ccccc1NC(=O)c1ccc(OC)cc1 [Example 14] | 150 | 75 | 85 | 165 | 164.5 | 206.8 | -17 | -17 | 4 | 95 | 110 | – | – | – | – | – | – | – | – | –
3 | COC(=O)C1=C(C)NC(C)=C(C(=O)OC)C1c1ccccc1NC(=O)C=Cc1ccccc1 [Example 9] | 125 | 85 | 65 | 166.6 | 166.6 | 192.0 | -13 | -13 | 1 | 75 | 102 | 94.3 | – | – | – | – | – | – | – | –
4 | COC(=O)C1=C(C)NC(C)=C(C(=O)OC)C1c1ccccc1NC(=O)c1ccco1 [Example 10] | 60 | 70 | 80 | – | – | – | – | – | – | 85 | – | 94.0 | – | – | – | – | – | – | – | –
5 | COC(=O)C1=C(C)NC(C)=C(C(=O)OC)C1c1ccccc1NC(=O)c1ccc(Cl)cc1 [Example 6] | 115 | 85 | 65 | – | – | – | – | – | – | 70 | 75 | – | – | – | – | – | – | – | – | –
6 | COC(=O)C1=C(C)NC(C)=C(C(=O)OC)C1c1ccccc1NC(=O)C=Cc1ccc([N+](=O)[O-])cc1 [Example 11] | 147 | 130 | 125 | 140 | 157.8 | 178.8 | -26 | -16 | -5 | 120 | 132 | 77.8 | – | – | – | – | – | – | – | –
7 | COC(=O)C1=C(C)NC(C)=C(C(=O)OC(C)C)C1c1ccccc1NC(=O)C(F)(F)F (stereo not drawn) [Example 37, 2,6-Dimethyl-3-isopropoxycarbonyl-5-methoxycarbonyl-4-(2-trifluoroacetamidophenyl)-1,4-dihydrophyridine] | 150 | 100 | 100 | – | – | – | – | – | – | 100 | 135 | – | – | – | – | – | – | – | – | –
8 | COCCOC(=O)C1=C(C)NC(C)=C(C(=O)OC)C1c1ccccc1NC(=O)c1ccc([N+](=O)[O-])cc1 (stereo not drawn) [Example 28] | 137 | 105 | 97 | 174.8 | 163.5 | 202.4 | -10 | -16 | 4 | 100 | 115 | – | – | – | – | – | – | – | – | –
9 | COC(=O)C1=C(C)NC(C)=C(C(=O)OC)C1c1ccccc1NC(=O)c1ccccc1C [Example 21] | 90 | 95 | 100 | 175.2 | 167.8 | 201.4 | -10 | -14 | 4 | 110 | 110 | – | – | – | – | – | – | – | – | –
10 | COC(=O)C1=C(C)NC(C)=C(C(=O)OC)C1c1ccccc1NC(=O)c1cccc(C)c1 [Example 20] | 140 | – | 105 | – | – | – | – | – | – | 105 | 120 | – | – | – | – | – | – | – | – | –
11 | CCCCCCCC(=O)Nc1ccccc1C1C(C(=O)OC)=C(C)NC(C)=C1C(=O)OC [Example 18] | 75 | – | 100 | 179.2 | 178 | 192.6 | -11 | -11 | -4 | 100 | – | – | – | – | – | – | – | – | – | –
12 | COC(=O)C1=C(C)NC(C)=C(C(=O)OC)C1c1ccccc1NC(=O)c1ccccc1[N+](=O)[O-] [Example 8] | – | – | – | – | – | – | – | – | – | – | – | 96.7 | – | – | – | – | – | – | – | –
13 | COCCOC(=O)C1=C(C)NC(C)=C(C(=O)OC)C1c1ccccc1NC(=O)C(F)(F)F (stereo not drawn) [Example 36, 2,6-Dimethyl-3-methoxycarbonyl-5-(2-methoxyethoxycarbonyl)-4-(2-trifluoroacetamidophenyl)-1,4-dihydropyridine] | – | – | – | 172.8 | 172.4 | 222.0 | -19 | -19 | 4 | – | – | – | – | – | – | – | – | – | – | –
14 | CCc1ccc(C(=O)Nc2ccccc2C2C(C(=O)OC)=C(C)NC(C)=C2C(=O)OC)cc1 [Example 22] | 120 | 110 | 105 | – | – | – | – | – | – | 85 | 85 | – | 142.2 | 144.0 | 191.4 | -27 | -26 | -2 | – | –
15 | COC(=O)C1=C(C)NC(C)=C(C(=O)OC)C1c1ccccc1NC(=O)c1ccccc1 [Example 12] | 115 | 92 | 90 | 164 | 166.0 | 190.8 | -14 | -13 | 0 | 97 | 145 | 83.3 | – | – | – | – | – | – | – | –
16 | COC(=O)C1=C(C)NC(C)=C(C(=O)OC)C1c1ccccc1NC(=O)c1ccc(C)cc1 [Example 15] | 90 | 65 | 65 | – | – | – | – | – | – | 73 | 90 | – | 141.4 | 139.2 | 193.8 | -31 | -32 | -5 | 15.5 ± 3.5 | 3
17 | COC(=O)C1=C(C)NC(C)=C(C(=O)OC)C1c1ccccc1NS(=O)(=O)c1ccc([N+](=O)[O-])cc1 [Example 42, 2,6-Dimethyl-3,5bis(methoxycarbonyl)-4-[2-(4-nitrobenzenesulfonamido)-phenyl]-1,4-dihydropyridine] | – | – | – | – | – | – | – | – | – | – | – | 88.0 | – | – | – | – | – | – | – | –
